Reference: patent US8318638B2, “Plant activator” (Shiseido Company, Ltd., priority 1999, dated 2012)

Key:
Type in all cases: in vivo
lettuce = assay: Growth promotion effect on lettuce; settings: 50 μM aqueous solution sprayed five consecutive days
Description: One month after seeding of lettuce, spraying of a 50 μM specific ketol fatty acid (I) aqueous solution was carried out for five consecutive days, and growth of the lettuce (plant width) was observed.

Eustoma russellianum = assay: Growth promotion effect on Eustoma russellianum
cyclamen = assay: Growth promotion effect on cyclamen; settings: 50 μm aqueous solution sprayed five consecutive days, four months after seeding; observed for 48 days; FIG. 5
Description: Four months after seeding of cyclamen, spraying of a 50 μm specific ketol fatty acid (I) aqueous solution was carried out for five consecutive days. […] The plant width and the number of leaves were both increased.

digitalis = assay: Growth promotion effect on digitalis; settings: 80 μm aqueous solution, five consecutive days then once a week for six weeks; five-and-a-half months after spraying; FIG. 6
Description: Two weeks after seeding of digitalis, spraying of an 80 μm specific ketol fatty acid (I) aqueous solution was carried out for five consecutive days. Furthermore, three months after the start of the test; spraying of an 80 μm specific ketol fatty acid (I) aqueous solution was carried out for six weeks (once a week). Five-and-a-half months after the six-week spraying, the size of leaves and the plant height were measured.

geranium = assay: Growth promotion effect on geranium; settings: 80 μM aqueous solution, five consecutive days then once a week for six weeks; mottled and non-mottled leaf types; five-and-a-half months after last spraying; FIG. 8
Description: Two weeks after seeding of geranium, spraying of an 80 μM specific ketol fatty acid (I) aqueous solution was carried out for five consecutive days. Furthermore, three months after the start of the test, spraying of an 80 μM specific ketol fatty acid (I) aqueous solution was carried out for six weeks (once a week). Two types of geranium; i.e., geranium having mottled leaves and geranium having leaves of no mottles, were subjected to the test. Five-and-a-half months after the last spraying, the size of the leaves was measured.

[1] = tested on: Oryza sativa L. (variety: koshihikari); assay: Growth controlling effect on Oryza sativa L. seedlings (seed immersion)
Description: (1) Good-quality seeds of Oryza sativa L. (variety: koshihikari) (200 g) were immersed in water (800 mL) at 10° C. for 13 days. Thereafter, the seeds were equally divided into four groups, and the respective seed groups were immersed in specific ketol fatty acid (I) aqueous solutions (concentration: 0 μM, 1 μM, 10 μM, and 100 μM) (200 mL) at 30° C. for 1.5 days. The immersed seeds were planted in a four-divided seedbed tray, and grown under no light irradiation at 27° C. for three days. Subsequently, the grown seedlings were exposed to the typical outside environment. Six days after the exposure, 18 seedlings were randomly selected from each group, and the heights of the seedlings were measured, and then averaged. […] Subsequently, in consideration of practical handling of seedlings of Oryza sativa L., the effect of application of specific ketol fatty acid (I) was evaluated. […] In order to perform this evaluation, three weeks after the aforementioned light irradiation treatment, seedlings of each group were randomly selected, and the average of the proportions of the second leaves and third leaves was obtained. […] However, unlike the case of promotion of growth of the seedlings, the optimum concentration of the specific ketol fatty acid (I) aqueous solution is 1 μM.

Oryza sativa L. = assay: Growth controlling effect on Oryza sativa L. in paddy field (spraying)
Description: (2) Seedlings of Oryza sativa L. were grown in a seedbed in a manner similar to that described in (1), except that the seedlings were immersed in ion-exchange water at 10° C. for 15 days, without application of specific ketol fatty acid (I) described above in (1). Subsequently, the resultant seedlings which had been divided into five groups, each group containing three subgroups (only control group containing four subgroups) and each subgroup containing 16 seedlings, were exposed to the outside environment. Immediately after this exposure, spraying of specific ketol fatty acid (I) was carried out (0 ppm for a first group (control group), 25 ppm for second and third groups, 50 ppm for fourth and fifth groups). Thirty days after the spraying, the seedlings were planted in a paddy field, and additional spraying of specific ketol fatty acid (I) (25 ppm) was carried out for two groups; i.e., the third group (total amount of the acid (I): 25+25 ppm) and the fifth group (total amount of the acid (I): 50+25 ppm). Subsequently, the seedlings of the Oryza sativa L. were grown in the paddy field by means of a customary method. Forty-one days after the above planting, in each group, the plant height and the number of stems per plant (at a section at which four seedlings were planted) were measured, and then averaged.

Seeds of lettuce = assay: Dry stress suppressive effect on lettuce seeds (germination); settings: for Number of germinated seeds: 50 seeds per group; for Germination rate (%: n = 50): seeds immersed 72 hours, dried in air 48 hours
Description: Seeds of lettuce (50 seeds per test group) were immersed in specific ketol fatty acid (I) aqueous solutions [concentration: 2 μM, 10 μM, 20 μM, and 0 μM (control)] for 72 hours, and dried in air for 48 hours. The resultant seeds were disposed on water-containing filter paper, and allowed to germinate. In each test group, germination rate—percentage (%) of germinated seeds with respect to the entirety of seeds—was obtained.

[2] = tested on: carpophores of Lentinus edodes; assay: Growth promotion effect on carpophore of Lentinus edodes (Berk.) Singer; settings: 5 mL per piece, five days culture at 18° C.
Description: Wood (Quercus serrata) containing hyphae of Lentinus edodes was cut into pieces having a length of about 15 cm, and the pieces were immersed in 10° C. water for 24 hours, after which the pieces were allowed to stand in a container of high humidity. Subsequently, specific ketol fatty acid (I) aqueous solutions (concentration: 0 μm, 3 μM, 30 μm, and 100 μM) were applied through spraying to the resultant pieces (six pieces for each group). Each solution was applied to each group (5 mL for each piece). Subsequently, the carpophores of Lentinus edodes were cultured in the same container at 18° C. under weak light irradiation. This culture was continued for five days, and then growth of the carpophores of Lentinus edodes was observed. FIG. 16 is a photograph showing the carpophores of Lentinus edodes cultured in the groups (note: {circumflex over (1)} application of the specific ketol fatty acid (I) (0 μM), (2) (3 μM), (3). (30 μM), and (4) (100 μM)). The average of the carpophores per piece was 0 in the 0 μM application group, 0.17 in the 3 μM application group, 1.0 in the 30 μM application group, and 1.0 in the 100 μM application group.

[3] = fifth group: 50+25 ppm sprayed, 41 days after planting
[4] = fourth group: 50 ppm sprayed, 41 days after planting
[5] = second group: 25 ppm sprayed, 41 days after planting
[6] = third group: 25+25 ppm sprayed, 41 days after planting

CC/C=C\C/C=C\CC(=O)C(O)CCCCCCCC(=O)O (centres unmarked) [specific ketol fatty acid (I), 9-hydroxy-10-oxo-12(Z),15(Z)-octadecadienoic acid]
duration of growth promotion effect (lettuce): maintained 48 days after the start of the test
growth of the lettuce (plant width) (lettuce; one month after seeding, FIG. 2): exerts the effect of promoting growth of the lettuce
bolting (Eustoma russellianum; 50 μm aqueous solution sprayed to rosette leaves five consecutive days, three months after seeding): bolting was observed immediately after the spraying
plant width (Eustoma russellianum; 50 μm aqueous solution, observed for 48 days): did not increase as had been expected
plant height (Eustoma russellianum; 50 μm aqueous solution, observed for 48 days, FIG. 4): continued to increase 48 days after observation of growth
number of leaves (cyclamen): increased
plant width (cyclamen): increased
plant height (digitalis): increased
size of leaves (digitalis): increased
size of the leaves (geranium): growth of the leaves of these two types is promoted
optimum concentration of the aqueous solution for controlling growth of the third leaves ([1]; seed immersion, FIG. 13): 1 µM
heights of the seedlings (degree of growth promotion) ([1]; seeds immersed in 1 μM, 10 μM, 100 μM solutions at 30° C. for 1.5 days, six days after exposure, 18 seedlings, FIG. 12): commensurate with the application amount
growth of the third leaves (proportions of second and third leaves) ([1]; seeds immersed in 1, 10, 100 μM solutions, three weeks after light irradiation treatment, FIG. 13): exerts the effect of controlling growth of the third leaves
plant height, difference between groups incl. control (Oryza sativa L.; 25 to 50+25 ppm, 41 days after planting): significant difference was not observed
number of stems per plant greater than control group (Oryza sativa L.; each of the second through fifth groups): about 10%
number of stems per plant (Oryza sativa L.; [3]): 37
plant height (Oryza sativa L.; [3]): 58 cm
number of stems per plant (Oryza sativa L.; [4]): 38
plant height (Oryza sativa L.; [4]): 58 cm
number of stems per plant (Oryza sativa L.; [5]): 38
plant height (Oryza sativa L.; [5]): 57 cm
number of stems per plant (Oryza sativa L.; [6]): 39
plant height (Oryza sativa L.; [6]): 57 cm
Number of germinated seeds (Seeds of lettuce; 2 μM): 43
Germination rate (%: n = 50) (Seeds of lettuce; 2 μM): 86%
Number of germinated seeds (Seeds of lettuce; 10 μM): 49
Germination rate (%: n = 50) (Seeds of lettuce; 10 μM): 98%
Number of germinated seeds (Seeds of lettuce; 20 μM): 45
Germination rate (%: n = 50) (Seeds of lettuce; 20 μM): 90%
average of the carpophores per piece ([2]; 3 μM sprayed): 0.17
average of the carpophores per piece ([2]; 30 μM sprayed): 1.0
average of the carpophores per piece ([2]; 100 μM sprayed): 1.0
